Measured values from patent US8790883B2, “Methods of identifying NF-κB inhibitors” (priority 2003, dated 2014).
Ends that are not written are not given here. Peptide text beside a SMILES is read from it. * marks the point of attachment. BODIPYFLEthylmaleimide = Cc1cc(C)n2c1C=C1C=CC(CCC(=O)NCCN3C(=O)CC(*)C3=O)=[N+]1[B-]2(F)F; BODIPY = not defined here; Cam = NC(=O)C*

Assays:
[1] = Cytotoxicity of NLM-DR derived peptides (MTS, FACS, microscope), Table 2
[2] = system: human retinoblastoma cell lines Y79; test: Cell death assay (MTS) in retinoblastoma cell line Y79; format: cell-based; details: for Y79 cells died: 5 μM concentration, longer treatment (FIG. 8C); for Induction of Y79 cell death: 3 hours, various concentrations, peptides without BODIPY
Experimental: Rb cell line Y79 were treated with various concentration of the Ant-CC2 (WT) (filled squares) or Ant-CC2 (Mu) (open squares) (A), or Ant-LZ (WT) (filled circles), or Ant-LZ (Mu) (open circles) (B), or Ant peptide (open triangle) (C) for 3 hours (A, B) or 16 hours (C). Cell survival was then evaluated using the MTS assay as described in “Materials and methods”
The detection of cell death was performed using the MTS assay provided by Promega (CellTiter 96® AQueous one solution cell proliferation assay). Briefly, 0.3×10^6 Y79 cells in 450 μl were treated with 50 μl of the wild type Ant-CC2 and Ant-LZ peptides (0.1 to 20 μM) or their mutants Ant-CC2 (Mu), Ant-LZ (Mu) or the Ant or left untreated in serum-free RPMI medium at 37° C. After an incubation of […], an aliquot of the cell suspension (200 μl, 0.12×10^6 cells), was then transferee in 96-well plates and mixed with the MTS solution (40 μl) containing the MTS compound and the phenazine ethosulfate. Two hours after, the quantity of formazan produced by viable cells was measured using an automated microplate reader (Bio-TeK Instruments, INC) at 490 nm absorbance. Cell survival was observed under microscope and was estimated as a percentage of the value of untreated controls. The background of the reaction was determined by mixing the MTS solution with cell-free RPMI medium. To increase the sensitivity of the cell death assay, the present inventors used peptides devoid of BODIPY-labeling because the absorption spectra of the fluorophor overlaps with that of the formazan product. All experiments were repeated twice and each experiment condition was repeated in duplicate wells in each experiment.

[3] = system: LPS-induced NF-κB activation; test: NF-κB inhibition assay, first procedure: LPS-induced NF-κB dependent β-galactosidase reporter in 70Z/3-C3 cells; format: cell-based, murine; details: for LPS-induced NF-κB activation in presence of peptide: 20 μM peptide 2 h, LPS (3 μg/ml) 5 h, 70Z3-C3 cells
Experimental: The resulting cell line, 70Z3-C3, was incubated for 2 hours in the absence or in the presence of 20 μM of antennapedia peptide (Ant), or BODIPY-labeled antennapedia peptide (BODIPY-Ant), or BODIPY-labeled antennapedia peptide coupled to CC2 (BODIPY-Ant-CC2) or LZ (BODIPY-Ant-LZ) peptides, After peptide internalization, cells were treated for 5 hours with LPS (3 μg/ml, (+) in left panel) or untreated (right panel and (−) in left panel) and the NF-κB activity was measured by β-galactosidase assay. Error bars represent the standard deviation of three separate experiments. (B) Concentration dependence of inhibition of LPS-induced NF-κB activation by BODIPY-Ant-CC2 peptide (left panel) or BODIPY-Ant-LZ peptide (right panel). Cells were treated as in (A) but with different concentration of peptide as indicated. The potential of each peptide to inhibit LPS-induced NF-κB activation was measured by determining the IC50 value that correspond to 50% inhibition of LPS-induced NF-κB activation as compared to the control (no peptide) (C). (D) Effect of the N-fusion sequence of antennapedia on the inhibition of NF-κB activation. Control (no peptide) or CC2, or LZ peptides, with (BODIPY-ANT-CC2, BODIPY-ANT-LZ) or without the antennapedia sequence at the N-terminus (CC2, LZ) were incubated for 2 hours with 70Z3-C3 cells followed with (+) or without (−) the LPS-treatment for 3 hours. NF-κB activity was then measured by β-galactosidase assay.
In a first procedure 2.2×10^5 70Z/3-C3 cells in 220 μl of RPMI 1640 supplemented with 10% fetal calf serum (FCS) and 50 μM β-mercaptoethanol were placed in a 96-well plate and incubated with various concentrations of peptide (0 to 20 μM) at 37° C. in 5% CO2 incubator. After two hours an equal portion (100 μl) of each cell sample transferred in two wells containing each 10^5 cells. One aliquot of cells was then treated for 5 hours with lipopolysaccharides from Salmonella abortus (Sigma) at 0.5 μg/ml final concentration, and the other one left-treated. After 5 hours, cells were centrifuged at 400×g for 5 min at room temperature and the cell pellets were washed three times with cold PBS (250 μl) by centrifugation. Cells were then lysed in the lysis buffer (25 mM tris-phosphate buffer at pH 7.8 containing 8 mM magnesium chloride, 1 mM dithioerythreitol, 1% Triton X-100, 15% glycerol and a protease inhibitor mixture (Roche)), and samples were centrifuged at 4° C. for 20 min to clarify the lysate. The supernatant was then kept on ice, and 30 μl was then assayed to measure the β-galactosidase activity with a plate luminometer (Berthold) using the GALACTON-STAR™ as chemiluminescent substrate (BD Biosciences Clontech, Bronstein et al., 1989). Background of reaction was measured by mixing for 1 hour 30 μl of lysis buffer with the reaction buffer (196 μl) and the GALACTON-STAR™ substrate (4 μl) provided by BD Biosciences. In a second procedure and a more stringent assay, 70Z/3-C3 cells (2.2×105 in 220 μl medium) were centrifuged at 400×g at room temperature after peptide internalization for 2 hours, and cell pellets were washed three times with 200 μl of PBS by centrifugation. Cells were then diluted three times with complete medium, and allowed to grow for at least 24 hours. The following steps are identical to the first procedure.
To analyze the inhibition potential of LPS-induced NF-κB activation by cell permeable BODIPY-Ant-CC2 and BODIPY-Ant-LZ peptides, the present inventors stably transfected the murine pre-B 70Z3 cell line with p12XlacZ-kB, which bears the β-galactosidase reporter gene under the control of the NF-κB transcription factor.

[4] = system: LPS-induced NF-κB activation; test: More stringent NF-κB inhibition assay, second procedure: peptide internalization, washing, 24 h growth, then LPS; format: cell-based, murine; details: 10 μM peptide
From the text: Left panels show a helical wheel diagram of CC2 (A) and LZ (B) peptides. The view is from the top the molecule. The (a) through (g) positions, which are an essential feature of coiled coil sequence (Vinson, 2002, Mol. Cell. Biol.) represent sequential positions in each peptide sequence. The first (a) and fourth (d) positions that are generally occupied by hydrophobic amino acids constitute the hydrophobic core for parallel as well as antiparallel-coiled coils. Mutations that were introduced in (a) positions of the CC2 variant (BODIPY-Ant-CC2 (Mu); shown as residues 6-40 of SEQ ID NO:3, with glycine mutations corresponding to residues 6-40 of SEQ ID NO:5) or in (d) positions of the LZ variant (BODIPY-Ant-(Mu) are shown. In the right panels, 70Z3-C3 cells were incubated for 2 hours in the absence (control) or in the presence of 10 μM of cell permeable wild type (BODIPY-Ant-CC2 (WT)) or mutant (BODIPY-Ant-CC2 (Mu)) CC2 peptides (A) or wild type (BODIPY-Ant-LZ (WT)) or mutant (BODIPY-Ant-(Mu)) LZ peptides (B). The cells were then extensively washed to remove the excess peptide which had not been internalized and the cells were then diluted three times and allowed to grow for 24 hours before treatment for 5 hours with (+) or without LPS (−). NF-κB activity was measured using the β-galactosidase assay. Error bars represent the standard deviation of two independent experiments.
(A) Sequence alignment of the NEMO-derived LZ (residues 301-336 of SEQ ID NO: 12) and the GCN4 peptides (residues 23-55 of SEQ ID NO:8). Both coiled-coil motifs were aligned using clustalX. Identical and similar amino acid residues (shaded) are indicated by (!) or (*), respectively. (B) Overview and helical wheel diagram of the GCN4 coiled-coil (top view). The amino-acid sequence of GCN4 is shown with its corresponding [a-g] positions and residues that differ from the corresponding NEMO-derived LZ sequence are boxed according to their degree of conservation. Identical (open square) and similar residues (open triangle) are indicated. […] NF-κB activity was measured using the b-galactosidase assay. […]

[5] = Analytical gel filtration, oligomeric states of peptides; format: physicochemical; details: 10 μM, Superdex 75, buffer with 0.1 mM DDM
Experimental: All peptides were loaded at a 10 μM concentration on a superdex 75 HR10/30 column equilibrated in a buffer containing 0.1 mM DDM to improve recovery (see “Materials and methods”). Chromatographic profiles of the CC2 mutant (dashed line) and the CC2 wild type (solid line) fused (BODIPY-Ant-CC2 (WT), BODIPY-Ant-CC2 (Mu), or not fused to the antennapedia sequence (CC2 (WT), CC2 (Mu)) are shown in left panels, and elution profiles of the LZ mutant (dashed line) and the wild type (solid line) fused (BODIPY-Ant-LZ (WT), BODIPY-Ant-LZ (Mu), or not fused to the antennapedia sequence (LZ (WT), LZ (Mu)) are represented in right panels. Elution volumes of globular protein markers are indicated by arrows: Oval, ovalbumin (43 kDa); Chym, chymotrypsinogene A (25 kDa); Ribo, Ribonuclease (13.4 kDa) and Apro, aprotinin (6.5 kDa).
The oligomeric states of peptides were determined by filtration as described in Traincard et al., 2003. In brief, 500 μl samples were loaded on a SUPERDEX™ 75 HR 10/30 column equilibrated in 50 mM Tris-HCl pH 8.0 containing 200 mM NaCl and 0.1 mM DDM, at a constant flow rate of 0.4 ml/min. The presence of the DDM detergent was added in the equilibrium buffer to minimize the adsorption in the column and to increase the peptide recovery. The column was calibrated in the same equilibrium buffer with blue dextran 2000 (void volume), dithioerythritol (total volume), bovine serum albumin (67 kDa, Rs=35.2 Å), ovalbumine (43 kDa, Rs=27.5 Å), chymotrypsinogen A (25 kDa, Rs=21.1 Å), ribonuclease A (13.7 kDa, Rs=16.4 Å), cytochrome C (12.4 kDa, Rs=17.7 Å) and aprotinin (6.5 KDa, Rs=13.5 Å).

CC[C@H](C)[C@H](NC(=O)[C@H](CC(=O)O)NC(=O)[C@H](C)NC(=O)[C@H](CCC(N)=O)NC(=O)[C@H](C)NC(=O)[C@H](CCCCN)NC(=O)[C@H](CC(C)C)NC(=O)[C@H](CCCNC(=N)N)NC(=O)[C@H](CCCNC(=N)N)NC(=O)[C@H](CCCNC(=N)N)NC(=O)[C@H](CCC(N)=O)NC(=O)[C@H](CCCNC(=N)N)NC(=O)[C@H](CCCNC(=N)N)NC(=O)[C@H](CCCCN)NC(=O)[C@H](CCCCN)NC(=O)[C@H](CCCNC(=N)N)NC(=O)CNC(=O)[C@H](Cc1ccc(O)cc1)NC(=O)[C@H](CSC1CC(=O)N(CCNC(=O)CCC2=[N+]3C(=Cc4c(C)cc(C)n4[B-]3(F)F)C=C2)C1=O)NC(C)=O)C(=O)N[C@@H](Cc1ccc(O)cc1)C(=O)N[C@@H](CCCCN)C(=O)N[C@@H](C)C(=O)N[C@@H](CCCNC(=N)N)C(=O)N[C@@H](Cc1ccccc1)C(=O)N[C@@H](CCC(N)=O)C(=O)N[C@@H](C)C(=O)N[C@@H](CCC(=O)O)C(=O)N[C@@H](CCCNC(=N)N)C(=O)N[C@@H](Cc1c[nH]cn1)C(=O)N[C@@H](C)C(=O)N[C@@H](CCCNC(=N)N)C(=O)N[C@@H](CCC(=O)O)C(=O)N[C@@H](CCCCN)C(N)=O (stereo partly shown) [BODIPY-TAT-NLM-DR] (Ac-C(BODIPYFLEthylmaleimide)YGRKKRRQRRRLKAQADIYKARFQAERHAREK-NH2)
Cytotoxicity Cell morphology FACS [1]: no
Cytotoxicity Cell morphology Microscope [1]: no

Ac-C(Cam)RQIKIWFQNRRMKWKKLKAQADIYKADFQAERHAREKLVEKKEYLQEQLEQLQREFNKL-NH2 [Ant-LZ]
Y79 cells died [2]: 80%

Ac-C(Cam)RQIKIWFQNRRMKWKKSKGMQLEDLRQQLQQAEEALVAKQELIDKLKEEAEQHKIV-NH2 [Ant-CC2]
Y79 cells died [2]: 55%

Ant-CC2 (Mu): mutant Ant-CC2 devoid of BODIPY-labeling (SEQ ID NO: 4) (Ac-CRQIKIWFQNRRMKWKKSKGMQLEDLRQQGQQAEEAGVAKQELGDKLKEEAEQHKIV-NH2)
Induction of Y79 cell death [2]: did not induce concentration cell death

Ant-LZ (Mu): mutant Ant-LZ devoid of BODIPY-labeling (SEQ ID NO: 8) (Ac-CRQIKIWFQNRRMKWKKLKAQADIYKADFQAERHAREKLVEKKEYSQEQLEQSQREFNKL-NH2)
Induction of Y79 cell death [2]: not

Ant: antennapedia/penetratin internalization peptide without BODIPY label (SEQ ID NO: 1) (CRQIKIWFQNRRMKWKK) [reference compound]
LPS-induced NF-κB activation in presence of peptide [3]: same level of NF-κB activation as the control
Effect on Y79 cell survival, longer treatment ([2]; 16 hours (FIG. 8C)): did not affect cell survival

B-CRQIKIWFQNRRMKWKK ({BODIPY}-CRQIKIWFQNRRMKWKK; reading uncertain) [BODIPY-Ant, reference compound]
LPS-induced NF-κB activation in presence of peptide [3]: same level of NF-κB activation as the control

B-CRQIKIWFQNRRMKWKKLKAQADIYKADFQAERHAREKLVEKKEYLQEQLEQLQREFNKL (C(BODIPY)RQIKIWFQNRRMKWKKLKAQADIYKADFQAERHAREKLVEKKEYLQEQLEQLQREFNKL-NH2; not fully specified (N-terminus); reading uncertain) [BODIPY-Ant-LZ (WT)]
LPS-induced NF-κB activation in presence of peptide [3]: decreased significantly
LPS-induced NF-κB activation in presence of peptide ([3]; listed as “Leucine zipper” peptide): completely eliminates cell response

B-CRQIKIWFQNRRMKWKKLKAQADIYKADFQAERHAREKLVEKKEYSQEQLEQSQREFNKL (C(BODIPY)RQIKIWFQNRRMKWKKLKAQADIYKADFQAERHAREKLVEKKEYSQEQLEQSQREFNKL-NH2; not fully specified (N-terminus); printed as B-CRQIKIWFQNRRMKWKKLKAQADIYKADFQAERHAREKLVEKKEYSQEQLEQSQREFNKL; reading uncertain) [BODIPY-Ant-LZ (Mu)]
Inhibition of NF-κB activation compared to the control [4]: 15%

LKAQADIYKADFQAERHAREKLVEKKEYLQEQLEQLQREFNKL [LZ (WT)]
Oligomeric state by gel filtration [5]: dimer
LPS-induced NF-κB activation, peptides not fused to antennapedia ([3]; peptide 2 h, LPS 3 h, 70Z3-C3 cells (FIG. 3D)): same level of activation as the control

LKAQADIYKADFQAERHAREKLVEKKEYSQEQLEQSQREFNKL [LZ (Mu)]
Oligomeric state by gel filtration [5]: still detected dimerization

SKGMQLEDLRQQGQQAEEAGVAKQELGDKLKEEAEQHKIV [CC2 (Mu)]
Oligomeric state by gel filtration [5]: lost its ability to oligomerize
